Source: patent US8258151B2, “3-aminoimidazo [1,2-A] pyridine derivatives as SGLT inhibitors” (Merck Patent GmbH, priority 2006, dated 2012)

Columns and labels:
[1] = molecular target: T1, SGLT1 (Homo sapiens, UniProt P13866); assay: SGLT1 activity measurement: 14C-AMG uptake in BHK cells transfected with SGLT1; format: cell-based; conditions: AMG 50 μM, 37° C., 90 min
T1 construct: expressed in transfected cells
T1 sequence (P13866 1-664): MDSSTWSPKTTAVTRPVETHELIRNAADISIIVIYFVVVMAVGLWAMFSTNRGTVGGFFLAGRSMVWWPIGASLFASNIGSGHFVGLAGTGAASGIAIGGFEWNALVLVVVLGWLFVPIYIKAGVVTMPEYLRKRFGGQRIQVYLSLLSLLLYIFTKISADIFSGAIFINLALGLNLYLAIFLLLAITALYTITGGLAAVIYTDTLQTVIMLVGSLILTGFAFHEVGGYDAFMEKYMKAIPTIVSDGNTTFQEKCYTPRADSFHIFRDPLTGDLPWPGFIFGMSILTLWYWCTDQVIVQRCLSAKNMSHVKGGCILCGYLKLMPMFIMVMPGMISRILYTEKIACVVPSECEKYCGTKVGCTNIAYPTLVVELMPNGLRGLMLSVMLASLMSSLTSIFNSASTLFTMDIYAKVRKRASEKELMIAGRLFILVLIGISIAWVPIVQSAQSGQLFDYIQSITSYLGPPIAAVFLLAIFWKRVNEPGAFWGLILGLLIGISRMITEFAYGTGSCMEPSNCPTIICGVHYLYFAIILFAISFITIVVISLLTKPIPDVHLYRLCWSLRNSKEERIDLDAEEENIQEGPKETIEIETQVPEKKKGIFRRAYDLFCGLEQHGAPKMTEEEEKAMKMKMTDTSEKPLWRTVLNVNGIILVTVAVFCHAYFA
Outline: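 BHK21 cells stably transfected with human SLC5A1 were incubated with 14C-AMG (added solution at 50 μM) ± compound for 90 min at 37 °C. The buffer was 140 mM NaCl, HEPES/Tris, pH 7.4. Lysed-cell radioactivity was counted by scintillation, and non-specific uptake was measured in sodium-free sucrose buffer.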

[2] = molecular target: T2, SGLT2 (Homo sapiens, UniProt P31639); assay: SGLT2 activity measurement: 14C-AMG uptake in BHK cells transfected with SGLT2; format: cell-based; conditions: AMG 2 mM, 37° C., 90 min
T2 construct: expressed in transfected cells
T2 sequence (P31639 1-672): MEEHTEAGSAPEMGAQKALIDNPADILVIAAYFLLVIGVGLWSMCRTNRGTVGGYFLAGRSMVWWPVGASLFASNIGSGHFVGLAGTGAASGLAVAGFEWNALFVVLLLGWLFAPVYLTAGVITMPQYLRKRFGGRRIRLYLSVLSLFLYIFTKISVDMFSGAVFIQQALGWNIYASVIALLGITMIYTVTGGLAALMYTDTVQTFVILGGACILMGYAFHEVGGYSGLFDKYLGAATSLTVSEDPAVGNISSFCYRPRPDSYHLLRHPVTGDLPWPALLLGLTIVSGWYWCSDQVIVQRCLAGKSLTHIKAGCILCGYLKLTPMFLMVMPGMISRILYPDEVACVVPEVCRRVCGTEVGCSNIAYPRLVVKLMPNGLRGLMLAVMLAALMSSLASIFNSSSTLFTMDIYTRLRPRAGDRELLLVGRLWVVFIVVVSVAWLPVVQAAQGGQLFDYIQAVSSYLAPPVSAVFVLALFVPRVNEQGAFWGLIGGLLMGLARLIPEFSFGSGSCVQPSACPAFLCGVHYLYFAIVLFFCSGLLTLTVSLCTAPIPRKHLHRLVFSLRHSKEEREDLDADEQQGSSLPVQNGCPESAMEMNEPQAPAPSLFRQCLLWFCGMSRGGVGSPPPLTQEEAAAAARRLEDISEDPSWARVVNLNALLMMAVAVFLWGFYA
Outline: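 BHK21 cells stably expressing human SGLT2 took up 14C-AMG (added as 2 mM solution) ± compound for 90 min at 37 °C in Na+-containing HEPES/Tris buffer, pH 7.4. Uptake was measured by scintillation counting after lysis. Non-specific uptake was defined in sodium-free sucrose buffer.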

| IC50 [1] | IC50 [2] | SMILES |
| --- | --- | --- |
| 1 to 10 µM | 0.01 to 1 µM | COc1cc(C)c(-c2nc3ccc(F)cn3c2Nc2c(C)cccc2Cl)c(OCC(N)=O)c1 [Compound A256, 2-[2-(Aminocarbonylmethoxy)-4-methoxy-6-methylphenyl]-3-(2-chloro-6-methylphenyl-amino)-6-fluoroimidazo[1,2-a]pyridine] |
| > 10 µM | 0.01 to 1 µM | Cc1ccc(-c2nc3ccccn3c2Nc2c(C)cccc2C)c(OCC(N)=O)c1 [Compound A17, 2-[2-(Aminocarbonylmethoxy)-4-methylphenyl]-3-(2,6-dimethylphenylamino)-imidazo[1,2-a]-pyridine] |
| > 10 µM | > 10 µM | Cc1cccc(C)c1Nc1c(-c2ccccc2OCC(N)=O)nc2cc(C#N)ccn12 [Compound A210, 2-[2-(Aminocarbonylmethoxy)phenyl]-3-(2,6-dimethylphenylamino)-7-cyanoimidazo[1,2-a]-pyridine] |
| > 10 µM | 0.01 to 1 µM | COc1cc(C)c(-c2nc3ccccn3c2Nc2c(C)cccc2C)c(OCC(N)=O)c1 [Compound A172, 2-[2-(Aminocarbonylmethoxy)-4-methoxy-6-methylphenyl]-3-(2,6-dimethylphenylamino)-imidazo[1,2-a]pyridine] |
| 1 to 10 µM | 0.01 to 1 µM | CCc1cc(OC)cc(OCC(N)=O)c1-c1nc2ccc(F)cn2c1Nc1c(C)cccc1C [Compound A185, 2-[2-(Aminocarbonylmethoxy)-4-methoxy-6-ethylphenyl]-3-(2,6-dimethylphenylamino)-6-fluoroimidazo[1,2-a]pyridine] |
| 1 to 10 µM | 0.01 to 1 µM | COc1cc(C)c(-c2nc3ccc(F)cn3c2Nc2c(F)cccc2F)c(OCC(N)=O)c1 [Compound A219, 2-[2-(Aminocarbonylmethoxy)-4-methoxy-6-methylphenyl]-3-(2,6-difluorophenylamino)-6-fluoroimidazo[1,2-a]pyridine] |
| 1 to 10 µM | 0.01 to 1 µM | COc1cc(C)c(-c2nc3ccc(F)cn3c2Nc2c(F)cc(F)cc2F)c(OCC(N)=O)c1 [Compound A244, 2-[2-(Aminocarbonylmethoxy)-4-methoxy-6-methylphenyl]-3-(2,4,6-trifluorophenylamino)-6-fluoroimidazo[1,2-a]pyridine] |
| 1 to 10 µM | 0.01 to 1 µM | CCc1cc(OC)cc(OCC(N)=O)c1-c1nc2ccccn2c1Nc1c(C)cc(F)cc1C [Compound A203, 2-[2-(Aminocarbonylmethoxy)-4-methoxy-6-ethylphenyl]-3-(2,6-dimethyl-4-fluorophenyl-amino)imidazo[1,2-a]pyridine] |
| > 10 µM | 1 to 10 µM | COc1cc(C)c(-c2nc3ccc(F)cn3c2Nc2c(C)cccc2C)c(OCC(N)=O)c1OC [Compound A201, 2-[2-(Aminocarbonylmethoxy)-3,4-dimethoxy-6-methylphenyl]-3-(2,6-dimethylphenylamino)-6-fluoroimidazo[1,2-a]pyridine] |
| 1 to 10 µM | 0.01 to 1 µM | COc1cc(C)c(-c2nc3ccc(F)cn3c2Nc2c(Br)cc(F)cc2Br)c(OCC(N)=O)c1 [Compound A238, 2-[2-(Aminocarbonylmethoxy)-4-methoxy-6-methylphenyl]-3-(2,6-dibromo-4-fluorophenyl-amino)-6-fluoroimidazo[1,2-a]pyridine] |
| 1 to 10 µM | 0.01 to 1 µM | COc1cc(C)c(-c2nc3ccc(F)cn3c2Nc2c(Cl)cccc2Cl)c(OCC(N)=O)c1 [Compound A205, 2-[2-(Aminocarbonylmethoxy)-4-methoxy-6-methylphenyl]-3-(2,6-dichlorophenylamino)-6-fluoroimidazo[1,2-a]pyridine] |
| > 10 µM | 0.01 to 1 µM | CCc1cccc(C)c1Nc1c(-c2ccccc2OCC(N)=O)nc2ccc(F)cn12 [Compound A174, 2-[2-(Aminocarbonylmethoxy)phenyl]-3-(2-methyl-6-ethylphenylamino)-6-fluoroimidazo-[1,2-a]pyridine] |
| 1 to 10 µM | 0.01 to 1 µM | CCc1cc(OC)cc(OCC(N)=O)c1-c1nc2ccc(F)cn2c1Nc1c(C)cc(F)cc1C [Compound A235, 2-[2-(Aminocarbonylmethoxy)-4-methoxy-6-ethylphenyl]-3-(2,6-dimethyl-4-fluorophenyl-amino)-6-fluoroimidazo[1,2-a]pyridine] |
| 1 to 10 µM | 0.01 to 1 µM | Cc1cccc(Cl)c1Nc1c(-c2ccccc2OCC(N)=O)nc2cccc(C)n12 [Compound A10, 2-[2-(Aminocarbonylmethoxy)phenyl]-3-(2-chloro-6-methylphenylamino)-5-methyl-imidazo[1,2-a]pyridine] |
| > 10 µM | 0.01 to 1 µM | Cc1cccc(C)c1Nc1c(-c2c(C)cc(OCC(N)=O)cc2OCC(N)=O)nc2ccc(F)cn12 [Compound A178, 2-[2-(Aminocarbonylmethoxy)-4-(amino-carbonylmethoxy)-6-methylphenyl]-3-(2,6-dimethylphenylamino)-6-fluoroimidazo[1,2-a]-pyridine] |
| 1 to 10 µM | 0.01 to 1 µM | COc1cc(C)c(-c2nc3c(F)cc(F)cn3c2Nc2c(Cl)cccc2Cl)c(OCC(N)=O)c1 [Compound A226, 2-[2-(Aminocarbonylmethoxy)-4-methoxy-6-methylphenyl]-3-(2,6-dichlorophenylamino)-6,8-difluoroimidazo[1,2-a]pyridine] |
| 0.01 to 1 µM | 0.01 to 1 µM | CCc1cccc(OCC(N)=O)c1-c1nc2ccc(F)cn2c1Nc1c(Cl)cccc1Cl [Compound A241, 2-[2-(Aminocarbonylmethoxy)-6-ethylphenyl]-3-(2,6-dichlorophenylamino)-6-fluoroimidazo-[1,2-a]pyridine] |
